One experiment concerns Pseudomonas aeruginosa. The experiment is described as follows: Potentiation of novobiocin-induced antibacterial activity against wild type Pseudomonas aeruginosa PAO1 incubated for 18 hrs by CLSI protocol based assay. Type of experiment: functional, organism-based.
For experiment [1], the system named is Acinetobacter baumannii. Kind of experiment: Antibacterial activity against novobiocin-resistant Acinetobacter baumannii ATCC 17978 mutant generated from seven serial passages by checkerboard assay. It counts as functional.
Experiment [2] has as its system Acinetobacter baumannii. The experiment is described as follows: Antibacterial activity against colistin-resistant Acinetobacter baumannii ATCC 17978 mutant generated from seven serial passages by checkerboard assay. Type of experiment: functional.
Experiment [3] relates to Acinetobacter baumannii. Kind of experiment: Antibacterial activity against novobiocin and test compound-resistant Acinetobacter baumannii ATCC 17978 mutant generated from seven serial passages in presence of novobiocin by checkerboard assay. It counts as functional.
Experiment [4] concerns Acinetobacter baumannii. The experiment is described as follows: Antibacterial activity against wild type Acinetobacter baumannii ATCC 17978 by checkerboard assay. Type of experiment: functional.

Molecules are shown by their SMILES. Activity calls are given as the source filed them. The rule behind the calls is not given here.

With `C#CCCCCO[C@@H]1[C@@H](O[C@H]2O[C@H](CO)[C@@H](O)[C@H](N)[C@H]2O)[C@H](N)C[C@H](N)[C@H]1O[C@H]1O[C@H](CN)[C@@H](O)C[C@H]1N`, in the experiment with Pseudomonas aeruginosa, the result was inactive.

As for `CC(C)(C)OC(=O)NC[C@H]1O[C@H](O[C@H]2[C@H](OCCCCc3cn(CCCCO[C@@H]4[C@@H](O[C@H]5O[C@H](CO)[C@@H](O)[C@H](NC(=O)OC(C)(C)C)[C@H]5O)[C@H](NC(=O)OC(C)(C)C)C[C@H](NC(=O)OC(C)(C)C)[C@H]4O[C@H]4O[C@H](CNC(=O)OC(C)(C)C)[C@@H](O)C[C@H]4NC(=O)OC(C)(C)C)nn3)[C@@H](O[C@H]3O[C@H](CO)[C@@H](O)[C@H](NC(=O)OC(C)(C)C)[C@H]3O)[C@H](NC(=O)OC(C)(C)C)C[C@@H]2NC(=O)OC(C)(C)C)[C@H](NC(=O)OC(C)(C)C)C[C@@H]1O`, the outcome in the experiment on Pseudomonas aeruginosa was inactive.

Regarding `CO[C@H]1/C=C/O[C@@]2(C)Oc3c(C)c(O)c4c(O)c(c(/C=N/N5CCN(C)CC5)c(O)c4c3C2=O)NC(=O)/C(C)=C\C=C\[C@H](C)[C@H](O)[C@@H](C)[C@@H](O)[C@@H](C)[C@H](OC(C)=O)[C@@H]1C` [RIFAMPIN], the MIC is 2 µg/mL in the experiment with Acinetobacter baumannii [1], under 0.031 µg/mL in the experiment with Acinetobacter baumannii [2], 2 µg/mL in the experiment on Acinetobacter baumannii [3] and 2 µg/mL in the experiment on Acinetobacter baumannii [4].

For `[N-]=[N+]=NCCCCO[C@@H]1[C@@H](O[C@H]2O[C@H](CO)[C@@H](O)[C@H](N)[C@H]2O)[C@H](N)C[C@H](N)[C@H]1O[C@H]1O[C@H](CN)[C@@H](O)C[C@H]1N`, the result in the experiment with Pseudomonas aeruginosa was inactive.

`O=C(O)c1cn(C2CC2)c2cc(N3CCNCC3)c(F)cc2c1=O` [CIPROFLOXACIN]: in the experiment on Acinetobacter baumannii [4], the MIC is 1 µg/mL.

For the compound `O=C(N[C@H](CO)[C@H](O)c1ccc([N+](=O)[O-])cc1)C(Cl)Cl` [CHLORAMPHENICOL], the MIC worked out at 32 µg/mL with Acinetobacter baumannii [1], 8 µg/mL with Acinetobacter baumannii [2], 64 µg/mL in the experiment with Acinetobacter baumannii [3] and 64 µg/mL in the experiment with Acinetobacter baumannii [4].

Regarding `CC(C)(O/N=C(\C(=O)N[C@@H]1C(=O)N2C(C(=O)[O-])=C(C[n+]3ccccc3)CS[C@H]12)c1csc(N)n1)C(=O)O` [CEFTAZIDIME], the MIC in the experiment with Acinetobacter baumannii [1] came out at 32 µg/mL; in the experiment with Acinetobacter baumannii [2], 1 µg/mL; in the experiment with Acinetobacter baumannii [3] it was 16 µg/mL; in the experiment with Acinetobacter baumannii [4], 16 µg/mL.

As to `CN(C)c1ccc(O)c2c1C[C@H]1C[C@H]3[C@H](N(C)C)C(O)=C(C(N)=O)C(=O)[C@@]3(O)C(O)=C1C2=O` [MINOCYCLINE], the MIC in the experiment on Acinetobacter baumannii [1] is 0.5 µg/mL; in the experiment on Acinetobacter baumannii [2] it was under 0.031 µg/mL; with Acinetobacter baumannii [3], 0.125 µg/mL; in the experiment on Acinetobacter baumannii [4], 0.125 µg/mL.

These data come from ChEMBL document CHEMBL4376820, “Homodimeric Tobramycin Adjuvant Repurposes Novobiocin as an Effective Antibacterial Agent against Gram-Negative Bacteria” (J Med Chem, 2019).
